What was measured:
Assay type in all cases: cell-based, human
RPE cells [1] = assay: Proliferation of RPE cells by cell counting; settings: 100-400 ng/ml
Method: (§1) FIG. 11. GRAND editing mediates precise large insertion in non-dividing cells. a, The proliferation of RPE cells at 6 h, 12 h, 24 h, 48 h after treated with 1 or 2.5 μM Palbociclib, or 100, 200, 400 ng/mL Nocodazole was determined by cell counting. b, The cell cycles of RPE cells were determined by propidium iodide staining. c, Detection of the nascent DNA synthesis in RPE cells by 5-ethynyl-2′-deoxyuridine (EdU) incorporation assay. The proportions of EdU-labeled positive cells were determined by flow cytometry. d, A 100 bp DNA fragment was inserted at EGFP (595-647) site in non-dividing RPE cells using GRAND editing. The accurate editing and imperfect events were quantified by deep sequencing. Mean±s.d. of n=3 independent biological replicates for a, b, d, and n=3-5 independent biological replicates for c.
(§2) To determine whether GRAND editing-mediated targeted insertion is cell cycle independent, we used small molecule drugs to arrest the cell cycle of human retinal pigment epithelium (RPE) cell line. Palbociclib, a Cdk4 and Cdk6 inhibitor, effectively arrests cells in G1 phase. […] Next, we conducted the GRAND editing on RPE cells with Palbociclib or Nocodazole treatment.

RPE cells [2] = assay: Cell cycle of RPE cells, propidium iodide staining, flow cytometry
Method: as §1, §2

RPE cells [3] = assay: EdU incorporation assay of nascent DNA synthesis in RPE cells
Method: as §1, §2

Structure (SMILES): COC(=O)Nc1nc2ccc(C(=O)c3cccs3)cc2[nH]1 [Nocodazole]
- growth of RPE cells (RPE cells [1]): fully inhibited
- cell cycle arrest (RPE cells [2]): arrest at G2 phase
- global DNA replication (EdU incorporation) (RPE cells [3]; at 24-48 hours): near fully inhibited replication
- global DNA replication (EdU incorporation) (RPE cells [3]; at 12 hours): significantly suppressed global DNA replication

— patent US20240247257A1, “SYSTEM AND METHODS FOR INSERTION AND EDITING OF LARGE NUCLEIC ACID FRAGMENTS” (WUHAN UNIVERSITY, priority 2021, published 2024)
